# From patent publication US11266626B2, “Reduction of ER-MAM-localized APP-C99 and methods of treating alzheimer's disease” (THE TRUSTEES OF COLUMBIA UNIVERSITY IN THE CITY OF NEW YORK, priority 2015, dated 2022)
# “Also recorded” adds a separate entry of the source.
# Assays:
# PS-DKO cells = test: Conversion of fluorescent sphingomyelin to ceramide in mitochondrial membranes (TLC); assay type: cell-based, mouse; conditions: PS-DKO (presenilin-mutant) cells; BI
# Description: SMase activity was therefore measured in MEFs lacking APP and APLP2 (APP-DKO) (28). […] To test this, SMases was measured in PSDKO cells treated with α- and β-secretase inhibitors, to abrogate the production of C83 and C99, respectively. As controls, the γ-secretase products Aβ and AICD were also added back (FIG. 9G). […] For corroboration in vivo, PS-DKO and control cells were incubated with a fluorescent analog of sphingomyelin and analyzed its conversion to ceramide.
# To explore this further, PS-DKO and control cells were incubated with a fluorescent sphingomyelin (FL-SM) and its localization and conversion to ceramide in mitochondrial membranes was analyzed by thin-layer chromatography (TLC).
# To explore this further, we incubated PS-DKO and control cells with fluorescent sphingomyelin and analyzed its localization and conversion to ceramide in mitochondrial membranes by thin-layer chromatography (TLC).
# [1] = system: acid (aSMase) and neutral (nSMase) sphingomyelinases; test: Analysis of sphingomyelinase activity; assay type: cell-based, mouse; conditions: PS-DKO MEFs; BI 100 nM; Aβ40:Aβ42 10:1, 6 ng/ml total
# Description: (§1) One hundred μg of protein were assayed in 100 mM of the appropriate buffer (Tris/glycine for pH 7.0-9.0 and sodium acetate for pH 4.0-5.0), 1.55 mM Triton X-100, 0.025% BSA, 1 mM MgCl2, and 400 μM bovine brain sphingomyelin spiked with 22000 dpm of [3H]-bovine sphingomyelin ([…]). Reactions were carried out in borosilicate glass culture tubes at 37° C., overnight, followed by quenching with 1.2 ml of ice-cold 10% trichloroacetic acid, incubation at 4° C. for 30 min, and centrifugation at 2000 rpm at 4° C. for 20 min. One ml of supernatant was transferred to clean tubes, 1 ml of ether was added, the mixture vortexed, and centrifuged at 2000 rpm for 5 min. Eight hundred μl of the bottom phase was transferred to scintillation vials, 5 ml of Scintiverse BD (Fisher Scientific, Fair Lawn, N.J.) was added, and samples were counted. […]
# (§2) Reactions were carried out in borosilicate glass culture tubes at 37° C., overnight, followed by quenching with 1.2 ml of ice-cold 10% trichloroacetic acid, incubation at 4° C. for 30 min, and centrifugation at 2000 rpm at 4° C. for 20 min. […] Eight hundred μl of the bottom phase was transferred to scintillation vials, 5 ml of Scintiverse BD (Fisher Scientific, Fair Lawn, N.J.) was added, and samples were counted. […]
# APP-DKO cells = test: Seahorse analysis of mitochondrial respiration (OCR); assay type: cell-based, mouse; conditions: APP-DKO cells expressing C99; DAPT added
# Description: Respirometry of cultured cells was performed using the XF24e Extracellular Flux Analyzer (Seahorse Bioscience). Oxygen consumption was measured in basal conditions (Seahorse media with 25 mM glucose and 2 mM pyruvate) and after the sequential addition of 1 μM oligomycin (Complex V inhibitor), 0.75 μM FCCP (uncoupler) and 1 μM rotenone/1 μM antimycin A (Complex I and Complex III inhibitors respectively).
# To analyze the effect of Aβ addition, a mix of Aβ40/Aβ42 at a ratio 10:1 was added to the cultured cells to a final concentration of 6000 pg/ml for 24 h. For Aβ42 oligomer formation, 5 mM of Aβ42 in DMSO was diluted to 100 μM in ice-cold media, vortexed for 30 seconds, and incubated at 4° C. for 24 h. Aβ42 Oligomers were added to the cultured cells to a final concentration of 5 or 10 μM for 24 h.
# Respirometry of cultured cells was performed using the XF24e Extracellular Flux Analyzer (Seahorse Bioscience). Oxygen consumption was measured in basal conditions (Seahorse media with 25 mM glucose and 2 mM pyruvate) and after the sequential addition of 1 μM oligomycin (complex V inhibitor), 0.75 μM FCCP (uncoupler), and 1 μM rotenone/1 μM antimycin A (complex I and complex III inhibitors, respectively). All results were averages of five or more biological replicates. Every biological replicate consisted of three technical replicates. For every technical replicate, we plated equal number of cells (25,000 cell/well when MEFs were used, and 50,000 cells/well when human primary fibroblasts were analyzed). The number of cells was also counted after every respirometry assay to correct for cell death. All oxygen consumption (OCR) data were normalized by the number of viable cells or by protein quantity when isolated mitochondria were used.
# To analyze the effect of Aβ addition, a mix of Aβ40/Aβ42 at a ratio 10:1 was added to the cultured cells to a final concentration of 6,000 pg/ml for 24 h. For Aβ42 oligomer formation, 5 mM of Aβ42 in DMSO was diluted to 100 μM in ice-cold media, vortexed for 30 s, and incubated at 4° C. for 24 h. […]
# [2] = system: acid (aSMase) and neutral (nSMase) sphingomyelinases; test: Analysis of sphingomyelinase activity; assay type: cell-based, human; conditions: SH-SY5Y cells; DAPT 10 μM
# Description: as §1, §2
Structure (SMILES),increase in ceramide derived from fluorescent sphingomyelin at mitochondria (PS-DKO cells),acid (aSMase) and neutral (nSMase) sphingomyelinase activity / sphingolipid turnover [1],mitochondrial respiration (OCR) (APP-DKO cells),SMase activity [2]
"C[C@@H](NC(=O)c1cc(C(=O)N[C@@H](Cc2ccccc2)[C@H](O)CNC2CC2)cc(N(C)S(C)(=O)=O)c1)c1ccccc1 [BI, β-secretase inhibitor IV]",this increase disappeared; also recorded: the elevated deposition of ceramide at mitochondria disappeared,reduced significantly; also recorded: attenuation of sphingolipid turnover; also recorded: attenuation of sphingolipid synthesis and hydrolysis by sphingomyelinases,,
C[C@H](NC(=O)Cc1cc(F)cc(F)c1)C(=O)N[C@H](C(=O)OC(C)(C)C)c1ccccc1 [DAPT],,,accentuated,significantly increased SMase activities; also recorded: increase in SMase activity
